Source: publication PMC8773213, “In Vitro Anticancer Activity and Mechanism of Action of an Aziridinyl Galactopyranoside” (Biomedicines, 2021)
Blank lines part the entries; values can stand above or below the compound they belong to.

Tests used:
[1] = test system: VH10 (Human skin non-malignant cells); assay: Resazurin cell viability assay, VH10; assay type: cell-based; settings: 72 h, read-out: IC50 (Mean ± SEM, µM), VH10
Protocol: (§1) Exponentially growing cells were seeded in 96-well plates and allowed to attach and grow for 24 h. The cells were then treated with increasing concentrations of the tested drugs. At the end of the treatment period, cell viability was measured with the MTT assay or the resazurin assay, two widely used techniques.
(§2) The resazurin assay is a redox-based colorimetric/fluorometric technique based on the ability of viable cells to reduce the blue compound resazurin into the pink, fluorescent and soluble product resorufin. The amount of resorufin produced is generally proportional to the number of living cells. In this assay, 24 h after seeding, cells were exposed to the tested drugs for 72 h. Then 100 μL resazurin in medium was added to each well (final concentration of 10 μg/mL) and, one hour later the fluorescence intensity was measured at 530/590 nm (excitation/emission) using a fluorescence microplate reader.
(§3) In both assays, cell viability was expressed as percentage compared to untreated cells. Results were expressed as the means ± standard error of the mean (SEM). All data are from at least three independent experiments.

[2] = test system: BJ-hTERT (hTERT-immortalized skin non-malignant BJ cells); assay: Resazurin cell viability assay, BJ-hTERT; assay type: cell-based; settings: Homo sapiens, 72 h, read-out: IC50 (Mean ± SEM, µM), BJ-hTERT
Protocol: as §1, §2, §3

[3] = test system: U2OS (Human osteosarcoma cells); assay: Resazurin cell viability assay, U2OS; assay type: cell-based; settings: 72 h, read-out: IC50 (Mean ± SEM, µM), U2OS
Protocol: as §1, §2, §3

[4] = test system: NB4 (Human acute promyelocytic leukemia cells); assay: Resazurin cell viability assay, NB4; assay type: cell-based; settings: 72 h, read-out: IC50 (Mean ± SEM, µM), NB4
Protocol: as §1, §2, §3

[5] = test system: HeLa (Human cervical carcinoma cells); assay: Resazurin cell viability assay, HeLa; assay type: cell-based; settings: 72 h, read-out: IC50 (Mean ± SEM, µM), HeLa
Protocol: as §1, §2, §3

[6] = test system: BJ-SV40T (SV40T-transformed BJ-hTERT cells); assay: Resazurin cell viability assay, BJ-SV40T; assay type: cell-based; settings: Homo sapiens, 72 h, read-out: IC50 (Mean ± SEM, µM), BJ-SV40T
Protocol: as §1, §2, §3

[7] = test system: PC3 (Human prostate cancer cells); assay: Resazurin cell viability assay, PC3; assay type: cell-based; settings: 72 h, read-out: IC50 (Mean ± SEM, µM), PC3
Protocol: as §1, §2, §3

[8] = test system: MRC-5 (Human lung non-malignant cells); assay: Resazurin cell viability assay, MRC-5; assay type: cell-based; settings: MRC5, 72 h, read-out: IC50 (Mean ± SEM, µM), MRC-5
Protocol: as §1, §2, §3

[9] = test system: SW480 (Human colon adenocarcinoma cells); assay: Resazurin cell viability assay, SW480; assay type: cell-based; settings: 72 h, read-out: IC50 (Mean ± SEM, µM), SW480
Protocol: as §1, §2, §3

[10] = test system: cancer cell lines versus MRC-5 and VH10 normal cell lines; assay: Resazurin assay, panel of cancer cells versus normal cells; assay type: cell-based, human; settings: 72 h
Protocol: as §1, §2, §3
Next, we evaluated the cytotoxic activity of AzGalp in cancer cell lines derived from solid tumors (HeLa, PC3, U2OS, HepG2 and SW480) and from hematological malignancies (NB4 and HL-60). To study the selectivity against cancer cells, MRC-5 and VH10 cells were used as normal cell lines; 5-FU was used as a positive control. All cells were treated with AzGalp or 5-FU for 72 h and cell viability was evaluated with the resazurin assay. This assay was used to determine cell viability instead of the MTT assay because the HL60 and NB4 cell lines grow in suspension. […] Leukemia cell lines were approximately 15 times more sensitive than normal cells to the cytotoxicity of our aziridine.

[11] = test system: HL-60 (Human acute promyelocytic leukemia cells); assay: Resazurin cell viability assay, HL-60; assay type: cell-based; settings: 72 h, read-out: IC50 (Mean ± SEM, µM), HL-60
Protocol: as §1, §2, §3

[12] = test system: BJ-RASV12 (HRASV12-transformed BJ-SV40T cells); assay: Resazurin cell viability assay, BJ-RASV12; assay type: cell-based, human; settings: 72 h
Protocol: as §1, §2, §3

[13] = test system: HepG2 (Human hepatocellular carcinoma cells); assay: Resazurin cell viability assay, HepG2; assay type: cell-based; settings: 72 h, read-out: IC50 (Mean ± SEM, µM), HepG2
Protocol: as §1, §2, §3

A549 cells [14] = assay: Glycolysis inhibition (glucose consumed, lactate produced); assay type: cell-based, human; settings: A549, 8 h
Protocol: Inhibition of glycolysis was determined by measuring glucose consumed (initial product of glycolysis) and lactate produced (final product of glycolysis) in untreated and treated cells. Cells were seeded in 6-well plates at a density of 10^6 cells/well and were allowed to attach for a few hours before treatment with the tested compounds for 8 h. After treatment, medium was recollected and glucose and lactate concentrations were determined using the Accutrend® Plus analyzer together with Accutrend glucose strips and BM-Lactate strips (Roche Diagnostics, Barcelona, Spain). After calibrating the instrument with glucose and lactate calibration strips, test strips were used to determine glucose and lactate levels through colorimetric oxidase mediator reactions according to the manufacturer’s instructions. The results are expressed as percentage of glucose consumption and percentage of lactate production in relation to untreated cells. Data were averaged from two independent experiments and shown as mean ± SEM.

UV4 and AA8 cells = assay: Clonogenic survival assay; assay type: cell-based, Chinese hamster; settings: 3 µM, 24 h, then colonies in drug-free medium
Protocol: Cell survival after treatment was determined by clonogenic assay. AA8 and UV4 cells were seeded in 6 cm Petri dishes 4 h prior to treatment for 24 h. After that, drugs were removed and cells were allowed to form colonies for eight days. The colonies were then stained with 0.4% methylene blue in methanol for 15 min. Surviving colonies made up of more than 50 cells per colony were counted. Results were represented as percentage of survival referred to untreated cells.

A549 cells [15] = assay type: cell-based; settings: A549, 48 h, antioxidant added 1 h before; MTT
Protocol: as §1
In the case of the MTT assay, this technique detects viable cells using the ability of these cells to reduce the yellow tetrazolium MTT to an insoluble colored formazan product. Subsequently, this product was solubilized and analyzed by spectrophotometry. Dead cells cannot reduce the MTT into the colored formazan product. Briefly, 24 h after plating, cells were treated with the tested compounds for 48 h; except in experiments with DNA repair-proficient and -deficient cell lines, in which cells were only exposed for 24 h to drugs and allowed to grow for an additional 48 h in drug-free medium to allow them to repair possible DNA damage induced by the tested drugs. After the treatment period, the medium was removed, the cells were washed once with PBS and 125 μL MTT (1 mg/mL in medium) was added to each well. Plates were incubated for 2–4 h and then 80 μL 20% SDS in 0.02 M HCl was added to each well. Finally, plates were incubated overnight at 37 °C and optical densities were measured at 540 nm using an absorbance spectrophotometer microplate reader.
as §3

AA8 cells = assay: Comet assay (DNA damage); assay type: cell-based, Chinese hamster; settings: 1 mM, 4 h
Description: The single cell gel electrophoresis assay, also known as comet assay, is a widely used technique for the study of levels of damage in cellular DNA. In this assay, individual cells embedded in agarose are lysed, electrophoresed, stained with a fluorescent dye and examined under an epifluorescence microscope. […] The quantity of DNA present in the tail is indicative of DNA damage. This assay has been described in detail by Singh et al.. We followed this protocol with minor modifications previously described. Briefly, standard slides were immersed in 1% normal melting agarose at 55 °C, left to allow the agarose to solidify and kept at 4 °C until use. Cells were seeded in 6-well plates, allowed to grow for 24 h and then cells were exposed to AzGalp or CTP (positive control) for 4 h. At the end of the treatment, cells were harvested by trypsinization, washed with PBS and resuspended in PBS at a concentration of approximately 1 million cells/mL; 10 µL cell suspension was mixed with 85 μL of low-melting agarose (LMA) at 37 °C and the mixture was quickly added to the slides with the first layer of agarose, spread using a coverslip and kept at 4 °C for 8 min to allow the LMA to solidify. The coverslips were then removed and another layer of 100 μL of LMA at 37 °C was added, covered with a coverslip and allowed to solidify at 4 °C for 8 min. After removing the coverslips, the slides were incubated in the dark for 1 h at 4 °C in a lysis buffer (pH 10.0) containing 0.25 M NaOH, 10% DMSO, 1% Triton X-100, 10 mM Tris-HCl, 100 mM Na2-EDTA and 2.5 M NaCl. Next, alkaline denaturation with electrophoretic buffer (300 mM NaOH and 1 mM Na2-EDTA) was carried out in an electrophoresis chamber for 20 min and then electrophoresis was performed at 1 V/cm for 20 min. […] DNA damage levels were quantified for each cell and expressed as percent of DNA in the tail and as the tail moment (defined as the product of the tail length and the fraction of total DNA in the tail). The results were averaged from two independent experiments and expressed as mean ± SEM.

IC50 [3]: 6.4 ± 0.7 µM
IC50 [4]: 2.5 ± 0.3 µM
IC50 [5]: 66.3 ± 27 µM
IC50 [7]: 1.5 ± 0.3 µM
IC50 [9]: 2.9 ± 1.3 µM
IC50 [11]: 0.9 ± 0.8 µM
IC50 [13]: 0.6 ± 0.3 µM
SMILES: O=c1[nH]cc(F)c(=O)[nH]1 [5-FU, 5-fluorouracil, reference compound]
IC50 [1]: > 1000 µM
IC50 [2]: 2.4 ± 0.5 µM
IC50 [6]: 5.4 ± 0.7 µM
IC50 [8]: > 1000 µM
Viability of leukemia cells ([10]; HL60 and NB4, concentrations between 10 and 100 µM): higher than 20%
Viability of normal cells ([10]; MRC-5 and VH10, concentrations between 10 and 100 µM): showed cytotoxicity against these cells
Sensitivity of BJ-RASV12 malignant cells relative to BJ-hTERT non-malignant cells ([12]; resazurin): did not observe this selectivity
IC50 ([12]; Homo sapiens, resazurin assay, read-out: IC50 (Mean ± SEM, µM), BJ-RASV12): 3 ± 1.4 µM

SMILES: O=C(O)C(Cl)Cl [DCA, dichloroacetate, reference compound]
Glycolytic activity (glucose consumption and lactate production) (A549 cells [14]): reduced lactate production and glucose consumption

SMILES: COc1cc([C@@H]2c3cc4c(cc3[C@@H](O[C@@H]3O[C@@H]5CO[C@@H](C)O[C@H]5[C@H](O)[C@H]3O)[C@H]3COC(=O)[C@H]23)OCO4)cc(OC)c1O [etoposide, reference compound]
Cell survival, UV4 versus AA8 (clonogenic assay) (UV4 and AA8 cells): UV4 cells were more sensitive

SMILES: OO [H2O2, hydrogen peroxide, reference compound]
Effect of MnTMPyP on cytotoxicity (A549 cells [15]): decreased in the presence of the three antioxidants
Effect of NAC on cytotoxicity (A549 cells [15]): decreased in the presence of the three antioxidants
Effect of catalase on cytotoxicity (A549 cells [15]): decreased in the presence of the three antioxidants

SMILES: COc1cc(C(=O)O)cc(OC)c1O [Syringic acid, reference compound]
DNA damage in comet assay (AA8 cells): does not induce DNA damage
